Laboratory results from patent EP0567613B1, “COMPOSITIONS FOR THERAPY AND PREVENTION OF CANCER” (The Government of the United States of America, as …, priority 1991, dated 1993).
Like-named read-outs stand apart in the source and are kept apart here.

Legend:
HLA-A mRNA = test: Northern blot analysis in PC3 cells; type: cell-based, human; conditions: NaPA treated PC3 cells
[1] = test system: premalignant 10T1/2 cells; test: cells
Method: C. Quantitation of adipocytosis. Lipids stained with Oil-Red O were extracted with butanol, and the optical density at 510 nm determined.
Lower: Quantitation of adipocytosis. Cells were fixed with 37% formaldehyde and stained with Oil-Red O. The stained intracellular lipid was extracted with butanol, and the optical density was determined using a Titertek Multiskan MC, manufactured by Flow Laboratories, at a wavelength 510 nm.

10T1/2 cells = test: Neoplastic foci formation in culture; conditions: 800-1600 µg/ml for seven weeks
Text: […] The cells were then subcultured in the absence of the nucleoside analog for an additional seven weeks. […] For the tumorigenicity assay, 4-5 week-old female athymic nude mice were inoculated s.c. with 1 x 10^6 cells and observed for tumor growth at the site of injection.

[2] = test system: intracellular glutathione; test: Induction of intracellular glutathione; type: cell-based; conditions: normal or tumor cells, depending on growth conditions
Text: It is known that intracellular glutathione plays a major role in detoxification and repair of cellular injury by chemical and physical carcinogens. […] Nontoxic agents that can induce glutathione are highly desirable since these are likely to protect cells from damage by a variety of chemical carcinogens and ionizing radiation.

4C8a10 cells = test: Malignant phenotype in culture / growth on matrigel; type: cell-based
Method: The experimental model involved nonmalignant 4C8a10 cells (revertants of Haras-transformed NIH3T3 fibroblasts). […]
^b Cells were plated on top of matrigel (reconstituted basement membrane) and observed for malignant growth pattern, i.e., active replication, development of characteristic processes, and invasion.

Prostatic Ca LaNCoP = test: Tumor cell growth / proliferation; type: cell-based; conditions: read-out: % Inhibition by NaPA 0.8 mg/ml
Kaposi's Sarcoma KS = test: Tumor cell growth / proliferation; type: cell-based; conditions: read-out: % Inhibition by NaPA 0.8 mg/ml
10T1/2 = test: Cell proliferation (cell number); type: cell-based, mouse; conditions: treated for four days
Method: (§1) The adherent cells were detached with trypsin/EDTA and the cell number determined using a hemocytometer. Data points indicate the mean ± S.D. of duplicates from two independent experiments. The cell lines were obtained from the American Type Culture Collection and maintained in RPMI 1640 (HL-60) or Dulbecco's Modified Eagle's Medium (10T1/2) supplemented with 10% heat inactivated fetal calf serum (Gibco Laboratories), 2 mM L-Glutamine, and antibiotics.

collagenase type IV = test: Northern blot analysis in PC3 cells; type: cell-based, human; conditions: NaPA treated PC3 cells
HL-60 [3] = test: Granulocyte differentiation (NBT reduction, morphology) and viability by trypan blue exclusion
Method: The number of NBT positive cells was determined after 4 [solid bars] or 7 days [hatched bar] of treatment. […] Glutamine Starvation (Gln, < 0.06 mM) was as described (18).
The ability of cells to reduce nitroblue tetrazolium (NBT) is indicative of oxidase activity which is characteristic of the more mature forms of human bone marrow granulocytes. NBT reduction thus serves as an indicator of granulocyte differentiation. […] Glutamine starvation (Gln, < 0.06 mM) was as described. […] DON, ACV and HPA are glutamine antagonists.

C3H 10T1/2 Cells = test: Tumorigenicity of treated cells in athymic mice; conditions: NaPA 1.6 mg/ml continuous, time 13 weeks
Method: Premalignant cells (3-4 x 10^5) were plated in 75 cm^2 dishes and 5-AzadC 0.1 µM was added to the growth medium at 20 and 48 hrs after plating. The cells were then subcultured in the absence of the nucleoside analog for an additional seven weeks. […] For the tumorigenicity assay, 4-5 week-old female athymic nude mice were inoculated s.c. with 1 x 10^6 cells and observed for tumor growth at the site of injection.

[4] = Cytotoxicity in tissue culture; type: cell-based; conditions: tissue culture; read-out: concentration at which cytotoxicity was observed
Text: (§2) A differential effect was seen also in ras-transformed fibrosarcoma V7T, when compared to the parental non-tumorigenic N1H3T3 cells.
(§3) The concentration range found to selectively suppress malignant growth can be readily obtained in the clinical setting without causing significant side effects.

[5] = test system: the malignant or the normal cells; test: Cytotoxicity in tissue culture; type: cell-based; conditions: growth-inhibitory concentrations
Text: as §2, §3

HL-60 [6] = test: Cell proliferation (cell number); type: cell-based, human
Method: as §1

myc = test: Northern blot analysis of myc mRNA in HL-60; type: cell-based, human; conditions: HL-60, NaPA 0.8 mg/ml
Method: Cytoplasmic RNA (20 µg/lane) was subjected to Northern blot analysis using ^32P-labeled specific DNA probes. Ethidium bromide-stained […] indicates the relative amounts of total RNA in each lane. Figure A. Induction of a P2 expression in 10T1/2 cells. […] Figure B. Kinetics of myc inhibition and HLA-A induction in HL-60. […] Figure C. Dose-dependent and specificity of effect.
In HL-60, cell transformation has been linked to myc amplification and overexpression, and differentiation would typically require down regulation of myc expression. [Collins, S.J. The HL-60 promyelocytic leukemia cell line: Proliferation, differentiation, and cellular oncogene expression. Blood. 70:1233-1244 (1987)]. […] The 32P-labeled probes used were myc 3rd exon (Oncor) and HLA-A3 Hind III/EcoRI fragment. […] This occurred within 4 hours of treatment, preceding the phenotypic changes detectable by 48 hrs, approximately two cell cycles, after treatment. Similar kinetics of myc inhibition have been reported for other differentiation agents such as dimethyl sulfoxide, sodium butyrate, bromodeoxyuridine, retinoids, and 1,25-dihydroxyvitamin D3. […] It is believed that this may enhance the immunogenicity of tumors in vivo.

DU145 = test: Tumor cell growth / proliferation; type: cell-based; conditions: Homo sapiens
Method: (§4) Studies of depth were performed with two androgenindependent human prostate adenocarcinoma cell lines, PC3 and DU145, established from bone and brain metastases, respectively.

[7] = test system: Prostate Adenocarcinoma PC3; test: Tumor cell growth / proliferation; type: cell-based; conditions: Homo sapiens
Method: as §4

[8] = after seven days of NaPA treatment, or four days when combined with RA

SMILES: O=C([O-])Cc1ccccc1.[Na+] [NaPA, sodium phenylacetate]
- level of HLA-A mRNA (HLA-A mRNA): an increase in the level of HLA-A mRNA
- cytotoxic effect ([1]; 800 µg/ml): totally free of cytotoxic effect
- Differentiation at 1 mM ([1]; 1 mM, sodium salts): 65%
- adipocyte conversion, share of the cell population ([1]; 10T1/2 model): over 80%
- DC50 ([1]; Mus musculus, Adipocyte, read-out: DC50, concentration of compound causing 50% differentiation): 700 µM
- neoplastic foci in vitro and tumors in recipient mice (10T1/2 cells): forming neither neoplastic foci in vitro nor tumors in recipient mice
- induction of the activity of intracellular glutathione [2]: 2-10 fold
- Growth on matrigel (4C8a10 cells; NaPA 1.5 mg/ml): -
- development of the malignant phenotype (4C8a10 cells; in 5-AzadC treated cultures): prevented the development of the malignant phenotype
- inhibition at 800 µg/mL (Prostatic Ca LaNCoP): > 50%
- inhibition at 800 µg/mL (Kaposi's Sarcoma KS): ≤ 40%
- cell proliferation (10T1/2): dose dependent inhibition of cell proliferation
- expression of collagenase type IV (collagenase type IV): inhibited the expression of collagenase type IV
- granulocyte differentiation (NBT positive cells) (HL-60 [3]; NaPA 0.8 and 1.6 mg/ml, 4 or 7 days): capable of inducing granulocyte differentiation in HL-60
- banded and segmented neutrophils capable of NBT (HL-60 [3]; [8]): 30-40%
- early stage myelocytes and metamyelocytes (HL-60 [3]; [8]): 30-50%
- Tumors Diameter (C3H 10T1/2 Cells): 0 mm ± S.D.
- Tumors Incidence (C3H 10T1/2 Cells; 1 x 10^6 cells s.c.): 0/8
- MCC [4]: > 3000 µg/mL
- toxicity of the treatment to cells [5]: not toxic to either the malignant or the normal cells
- inhibition at 800 µg/mL (HL-60 [6]; Homo sapiens, read-out: % Inhibition by NaPA 0.8 mg/ml, HL-60, 0.8 mg/ml): ≤ 40%
- cell proliferation (HL-60 [6]; treated for four days): dose dependent inhibition of cell proliferation
- time to decline in the amounts of myc mRNA (myc): ≤ 4 h
- IC50 (DU145; DU-145, growth arrest, read-out: IC50): 600 to 800 mg/L
- inhibition at 800 µg/mL (DU145; DU-145, read-out: % Inhibition by NaPA 0.8 mg/ml, 0.8 mg/ml): ≥ 50%
- IC50 (DU145; DU-145, read-out: concentration causing about 50% inhibition of growth): 400 to 800 mg/L
- IC50 [7]: 600 to 800 mg/L
- viability at 800 µg/mL ([7]; PC-3): > 95%
- activity at 800 µg/mL ([7]; PC-3, read-out: Growth): 59.6%
- IC50 ([7]; PC-3, read-out: concentration causing about 50% inhibition of growth): 400 to 800 mg/L
- inhibition at 800 µg/mL ([7]; read-out: % Inhibition by NaPA 0.8 mg/ml): ≥ 50%
